From paper PMC12609579, “Acute Myeloid Leukemia: A Key Role of DGKα and DGKζ in Cell Viability” (Cells, 2025)
Like-named read-outs stand apart in the source and are kept apart here.

Assays:
[1] = tested on: Peripheral blood lymphocytes (PBLs); assay: alamarBlue cell viability assay, PBLs from healthy donors; type: cell-based, human; conditions: for IC50: Homo sapiens, Lymphocyte, PBLs from healthy donors
Method: These four cell lines were employed in this study as in vitro models of AML, cell line identity was verified through a Cell Line Authentication Test conducted by Eurofins Genomics (Ebersberg, Germany) or by the internal university service. The resulting markers matched 100% with those reported in the ATCC database. […] L. Manzoli (Bologna, Italy), is reported as K562-related, differing from K526 by a single marker. Cells were cultured in RPMI-1640 medium (ThermoFisher Scientific, Waltham, MA, USA) supplemented with 10% heat-inactivated fetal bovine serum (FBS) and 1% penicillin-streptomycin, following the handling protocols provided by ATCC (Manassas, VA, USA). Additionally, healthy donor blood samples were provided by the UPO biobank under approved Ethical Committee authorization (Comitato Etico Interaziendale A.O.U. Maggiore della Carità 865/CE-CE206/2022 date 24 October 2022) and with informed consent for research use. Peripheral blood mononuclear cells were isolated by density gradient centrifugation using Ficoll-Paque PLUS (GE 14 Healthcare, Chicago, IL, USA), washed, and resuspended at a concentration of 2 × 10^6 cells/mL in RPMI-1640 medium containing 10% heat-inactivated FBS. Peripheral blood lymphocytes (PBLs) were selected by the treatment with 1 μg/mL anti-CD3 (clone OKT3) and anti-CD28 (clone CD28.2) human antibodies for 72 h. […]
The alamarBlue assay was performed to assess cell viability in presence of chemical inhibitors. […] The fluorescence of the samples was measured 24 h later using a Spark 10 M Multimode Plate Reader (Tecan, Switzerland) with excitation and emission wavelengths of 535 nm and 590 nm, respectively. For dose–response curve fitting, fluorescence values were normalized according to the following formula:Viability (%) = [(sample mean fluorescence)/(DMSO control mean fluorescence)] ∗ 100
Data are the results of at least five independent experiments analyzed with GraphPad Prism 10 as [inhibitor] vs. normalized response curve (variable slope, after manual outlier removal). […]

[2] = tested on: K562 cells; assay: alamarBlue cell viability assay, K562; type: cell-based, human
Method: (§1) The alamarBlue assay was performed to assess cell viability in presence of chemical inhibitors. A total of 50,000 cells per well were seeded in a 96-wells plate in a volume of 100 μL of complete medium together with 10 μL of 10× concentrated inhibitor solution and then incubated for either 24 or 72 h. Each experimental condition was performed in technical quadruplicates, using cells treated with equal amounts of DMSO vehicle as control and medium alone as background. After incubation, alamarBlue was added to each well at a final concentration of 0.15 mg/mL. The fluorescence of the samples was measured 24 h later using a Spark 10 M Multimode Plate Reader (Tecan, Switzerland) with excitation and emission wavelengths of 535 nm and 590 nm, respectively. For dose–response curve fitting, fluorescence values were normalized according to the following formula:Viability (%) = [(sample mean fluorescence)/(DMSO control mean fluorescence)] ∗ 100
(§2) Data are the results of at least five independent experiments analyzed with GraphPad Prism 10 as [inhibitor] vs. normalized response curve (variable slope, after manual outlier removal).

[3] = tested on: KG-1α; design: method as in PMID 37392305; conditions: read-out: IC50 (cytotoxic effects), cited from earlier work
[4] = tested on: THP-1 cells; assay: alamarBlue cell viability assay, THP-1; type: cell-based; conditions: Homo sapiens
Method: as §1, §2

[5] = molecular target: serotonin 5-HT2A receptor; conditions: cited from earlier work
[6] = tested on: HL-60 cells; assay: Annexin V-FITC/7AAD apoptosis/necrosis flow cytometry, HL-60; type: cell-based, human; conditions: HL-60, 24 h
Method: (§3) To determine the type of cell death, apoptotic and necrotic cells were detected by flow cytometry using the Apoptosis Detection Kit Annexin V-FITC (Invitrogen, Carlsbad, CA, USA). For each sample, 500,000 cells, pretreated for 24 h, were stained according to manufacturer’s instructions, using 7-aminoactinomycin D (7AAD) instead of propidium iodide. Samples were analyzed on a BD FACS Symphony A5 flow cytometer (Franklin Lakes, NJ, USA) using BD FACSDiva 9.1 software. Data were gated based on FSC-A vs. FSC-H to exclude cell doublets and FSC-A vs. SSC-A to exclude debris. Different populations were identified as: live (Annexin V− and 7AAD−), necrotic (Annexin− and 7AAD+), early apoptotic (Annexin V+ and 7AAD−) and late apoptotic (Annexin+ and 7AAD+). Data are shown as mean ± SD of at least three independent experiments analyzed by GraphPad Prism 10 (control vs. [inhibitor]).

[7] = tested on: Kasumi-1; design: method as in PMID 37392305; conditions: xenograft mouse models injected with Kasumi-1; cited from earlier work
[8] = tested on: normal hematopoietic stem cell samples; design: method as in PMID 37392305; conditions: 40 μM; cited from earlier work
[9] = tested on: bone marrow mononuclear cells from primary AML samples; design: method as in PMID 37392305; conditions: 40 μM; cited from earlier work
[10] = tested on: HEL cells; assay: Annexin V-FITC/7AAD apoptosis/necrosis flow cytometry, HEL; type: cell-based, human; conditions: 24 h
Method: as §3

[11] = tested on: Kasumi-1; design: method as in PMID 37392305; conditions: read-out: IC50 (cytotoxic effects), cited from earlier work
[12] = concentration close to IC50, representative plot

Question: What does the source list for Cc1nc2sccn2c(=O)c1CCN1CCC(=C(c2ccc(F)cc2)c2ccc(F)cc2)CC1 [ritanserin]?
Answer: IC50 ([1]; 24 h): 42.9 ± 1.3 µM; IC50 ([1]; 72 h): 32.5 ± 1.9 µM; cell death of IL-2 stimulated proliferating PBLs ([1]; untransformed PBLs, 50 μM): complete cell death; IC50 ([2]; Homo sapiens, K562, 24 h, K562, 24 h treatment then alamarBlue 24 h): 70.4 ± 2.2 µM; IC50 ([2]; Homo sapiens, K562, K562, 72 h treatment then alamarBlue 24 h): 42.5 ± 1.8 µM; IC50 ([2]; K562, 24 h treatment then alamarBlue 24 h): ~70 µM; IC50 ([3]; 24 h): 38 µM; IC50 ([3]; 72 h): 26 µM; IC50 ([4]; THP-1, 24 h, THP-1, 24 h treatment then alamarBlue 24 h): 37 ± 1.4 µM; IC50 ([4]; THP-1, THP-1, 72 h treatment then alamarBlue 24 h): 32 ± 1.5 µM; Ki [5]: 0.00045 µM; Early apoptotic (Annexin V+ 7AAD-) [6, 12]: 3.3%; Late apoptotic (Annexin+ 7AAD+) [6, 12]: 62.9%; Live cells (Annexin V- 7AAD-) [6, 12]: 33.8%; Necrotic (Annexin- 7AAD+) [6, 12]: 0%; modality of cell death ([6]; concentration near IC50): late apoptosis; survival [7]: improved survival; tumor burden [7]: significant reduction; apoptosis, % of cells [8]: below 30%; apoptosis, % of cells [9]: up to 70%; Early apoptotic (Annexin V+ 7AAD-) [10, 12]: 12.2%; Late apoptotic (Annexin+ 7AAD+) [10, 12]: 2.3%; Live cells (Annexin V- 7AAD-) [10, 12]: 82.5%; Necrotic (Annexin- 7AAD+) [10, 12]: 2.9%; modality of cell death ([10]; concentration near IC50): early apoptosis; IC50 ([11]; Kasumi-1, 24 h): 51 µM; IC50 ([11]; Kasumi-1, 72 h): 30 µM
